Assay results taken from US10669272B2, “Substituted naphthyridinone compounds useful as T cell activators” (BRISTOL-MYERS SQUIBB COMPANY, priority 2018, dated 2020).
Like-named read-outs stand apart in the source and are kept apart here.

What was measured:
human DGKα = target: T1, human DGKα (Homo sapiens, UniProt P23743); test: DGKα LIPGLO assay (extruded liposome substrate), in vitro DGK inhibition; type: biochemical; conditions: read-out: DGKa LIPGLO IC50
T1 construct: TVMV protease cleavage site (C); Hexa-His (C); made in house; host or cells: Sf9 insect cells (baculovirus, Bac-to-Bac)

Human venous whole blood = test: Human whole blood IFN-γ assay; type: cell-based; conditions: human whole blood, read-out: INFg Whole Blood Normalized Agonist EC50;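 also: blood from healthy donors exposed to compound for 1 h before stimulation with anti-CD3 and anti-CD28 at 1 µg/mL each, IFN-γ quantified in supernatant by AlphaLISA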
human DGKζ = target: T2, human DGKζ (Homo sapiens, UniProt Q13574); test: DGKζ LIPGLO assay (extruded liposome substrate), in vitro DGK inhibition; type: biochemical; conditions: read-out: DGKz LIPGLO IC50
T2 construct: TVMV protease cleavage site (C); Hexa-His (C); made in house; host or cells: Sf9 insect cells (baculovirus, Bac-to-Bac)

[1] = normalized to 3 μM reference compound with anti-CD3 plus anti-CD28 as 100% activation
[2] = anti-CD3 plus anti-CD28, 24 hours, 3 μM reference compound = 100% activation
[3] = Homo sapiens, 24 h, anti-CD3 plus anti-CD28, 24 hours, 3 μM reference compound = 100% activation
[4] = Homo sapiens, 24 h, normalized to 3 μM reference compound with anti-CD3 plus anti-CD28 as 100% activation

T1 sequence (P23743 with tags, fused parts or gaps): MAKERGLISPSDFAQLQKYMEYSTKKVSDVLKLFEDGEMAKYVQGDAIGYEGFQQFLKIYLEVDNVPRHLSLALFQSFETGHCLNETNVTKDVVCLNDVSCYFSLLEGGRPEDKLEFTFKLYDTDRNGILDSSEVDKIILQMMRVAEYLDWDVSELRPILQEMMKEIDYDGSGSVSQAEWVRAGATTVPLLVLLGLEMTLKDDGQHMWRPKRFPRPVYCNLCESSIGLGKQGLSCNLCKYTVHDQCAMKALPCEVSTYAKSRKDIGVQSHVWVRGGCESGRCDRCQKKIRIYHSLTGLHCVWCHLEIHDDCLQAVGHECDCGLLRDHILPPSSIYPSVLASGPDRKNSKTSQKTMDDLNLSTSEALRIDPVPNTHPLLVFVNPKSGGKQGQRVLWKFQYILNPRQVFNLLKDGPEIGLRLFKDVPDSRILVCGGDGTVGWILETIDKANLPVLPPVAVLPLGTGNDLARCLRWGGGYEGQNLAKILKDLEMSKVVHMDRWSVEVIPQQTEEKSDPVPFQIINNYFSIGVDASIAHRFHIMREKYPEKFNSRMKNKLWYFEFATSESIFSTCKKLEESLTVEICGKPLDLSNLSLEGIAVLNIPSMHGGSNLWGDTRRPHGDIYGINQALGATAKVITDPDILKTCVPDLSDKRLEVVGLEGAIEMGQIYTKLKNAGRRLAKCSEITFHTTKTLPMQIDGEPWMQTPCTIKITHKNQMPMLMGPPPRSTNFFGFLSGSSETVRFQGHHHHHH
T2 sequence (Q13574 with tags, fused parts or gaps isoform Q13574-4): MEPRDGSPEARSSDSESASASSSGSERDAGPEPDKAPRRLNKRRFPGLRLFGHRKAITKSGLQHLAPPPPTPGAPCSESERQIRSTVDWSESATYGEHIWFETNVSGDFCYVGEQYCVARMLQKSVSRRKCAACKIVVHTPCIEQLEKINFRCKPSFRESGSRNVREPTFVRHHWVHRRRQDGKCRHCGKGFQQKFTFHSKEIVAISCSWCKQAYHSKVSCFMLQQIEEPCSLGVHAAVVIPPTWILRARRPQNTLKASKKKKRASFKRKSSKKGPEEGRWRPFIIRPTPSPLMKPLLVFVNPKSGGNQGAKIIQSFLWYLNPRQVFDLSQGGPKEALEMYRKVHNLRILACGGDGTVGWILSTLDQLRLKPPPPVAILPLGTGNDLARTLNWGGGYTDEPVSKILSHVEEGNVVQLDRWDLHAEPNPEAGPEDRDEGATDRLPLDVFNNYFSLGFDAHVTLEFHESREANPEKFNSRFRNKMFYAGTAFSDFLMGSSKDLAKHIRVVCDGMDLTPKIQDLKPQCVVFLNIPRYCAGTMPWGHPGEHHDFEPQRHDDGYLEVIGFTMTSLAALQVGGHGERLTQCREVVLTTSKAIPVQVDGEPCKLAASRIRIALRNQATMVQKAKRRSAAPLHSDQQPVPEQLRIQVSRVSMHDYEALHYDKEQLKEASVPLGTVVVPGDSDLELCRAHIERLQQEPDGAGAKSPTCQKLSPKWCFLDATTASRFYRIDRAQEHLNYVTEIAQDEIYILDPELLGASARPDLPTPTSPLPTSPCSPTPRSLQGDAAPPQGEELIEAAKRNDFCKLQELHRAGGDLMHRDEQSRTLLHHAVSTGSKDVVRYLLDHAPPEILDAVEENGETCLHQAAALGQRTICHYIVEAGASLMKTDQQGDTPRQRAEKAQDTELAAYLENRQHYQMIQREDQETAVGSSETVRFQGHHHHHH

SMILES | IC50 (human DGKα; liposome (LIPGLO) assay) [µM] | IC50 (human DGKζ; liposome (LIPGLO) assay) [µM] | IC50 (human DGKα; DGKα liposome (LIPGLO) assay) [µM] | IC50 (human DGKζ; DGKζ liposome (LIPGLO) assay) [µM] | EC50 (Human venous whole blood; [1]) [µM] | EC50 (Human venous whole blood; [2]) [µM] | EC50 (Human venous whole blood; [3]) [µM] | EC50 (Human venous whole blood; [4]) [µM]
C[C@@H]1CN(c2c(F)c(=O)n(C)c3ccc(C#N)nc23)[C@@H](C)CN1C(c1ccc(F)cc1)c1ccccc1F (stereo partly drawn) [Example 334, 7-fluoro-8-((2S,5R)-4-((2-fluorophenyl)(4-fluorophenyl)methyl)-2,5-dimethylpiperazin-1-yl)-5-methyl-6-oxo-5,6-dihydro-1,5-naphthyridine-2-carbonitrile] | 0.5 | 0.56 | – | – | 1.9 | – | – | –
C[C@@H]1CN(c2cc(=O)n(C)c3ccc(C#N)nc23)[C@@H](C)CN1C(c1ccc(F)cc1)c1ccc(N2CCOCC2)cc1 (single isomer, unassigned) [Example 663] | > 250 | 24 | – | – | 20 | – | – | –
Cc1ncc(C(c2ccc(F)cc2)N2C[C@H](C)N(c3cc(=O)n(C)c4ccc(C#N)nc34)C[C@H]2C)cn1 (single isomer, unassigned) [Example 406] | 2.4 | 2.8 | – | – | – | – | – | 11
C[C@@H]1CN(c2c(C#N)c(=O)n(C)c3ccc(C#N)nc23)CCN1C(c1ccc(Cl)cc1)c1ccc2c(c1)OC(F)(F)O2 (single isomer, unassigned) [Example 941] | – | – | 4.3 | 20 | – | – | 20 | –
COCCOC[C@@H]1CN(c2cc(=O)n(C)c3ccc(C#N)nc23)[C@@H](C)CN1C(C)c1ccc(OC(F)(F)F)cc1 (single isomer, unassigned) [Example 1405] | 0.96 | 0.057 | – | – | – | – | – | 0.48
C[C@@H]1CN(c2cc(=O)n(C)c3ccc(C#N)nc23)[C@@H](C)CN1C(c1ccc(F)cc1)c1cccc(C(F)(F)F)n1 (stereo partly drawn) [Example 679] | 5.4 | 0.72 | – | – | 1.3 | – | – | –
CC[C@@H]1CN(c2cc(=O)n(C)c3ccc(C#N)nc23)[C@@H](CC)CN1Cc1cc(F)c(F)c(F)c1 [Example 1354] | 1.6 | 0.84 | – | – | – | – | – | 1.2
C[C@@H]1CN(c2cc(=O)n(C)c3ccc(C#N)nc23)[C@@H](C)CN1Cc1ccc(OC(F)(F)F)c(F)c1 [Example 610] | 0.69 | 13 | – | – | – | – | – | 1.8
CCC(c1ccc(OC(F)(F)F)cc1F)N1C[C@H](CC)N(c2cc(=O)n(C)c3ccc(C#N)nc23)C[C@H]1C (single isomer, unassigned) [Example 1377] | 0.029 | 0.27 | – | – | 2 | – | – | –
C[C@@H]1CN(c2c(C#N)c(=O)n(C)c3ccc(C#N)nc23)CCN1Cc1ccccc1Cl [Example 997] | – | – | 1.1 | 3.3 | – | – | 20 | –
COc1cc(F)c(C(C)N2C[C@H](C)N(c3cc(=O)n(C)c4ccc(C#N)nc34)C[C@H]2C)cc1OC (single isomer, unassigned) [Example 1246] | 11 | 0.1 | – | – | 2.1 | – | – | –
C[C@@H]1CN(c2cc(=O)n(C)c3ccc(C#N)nc23)[C@@H](C)CN1C(c1ccc(F)cc1)c1cc(C(C)(C)C)on1 (single isomer, unassigned) [Example 731] | – | – | 8.5 | 0.33 | – | 0.95 | – | –
COCCOc1cc(C(C)N2C[C@H](C)N(c3cc(=O)n(C)c4ccc(C#N)nc34)C[C@H]2C)ccc1OC (single isomer, unassigned) [Example 1303] | 65 | 2.9 | – | – | – | – | – | 20
CC[C@H]1CN(C(c2ccc(F)cc2)c2cccc(C(F)(F)F)n2)[C@H](CC)CN1c1cc(=O)n(C)c2ccc(C#N)nc12 (single isomer, unassigned) [Example 1045] | 0.56 | 0.12 | – | – | – | – | – | 0.17
C[C@@H]1CN(c2cc(=O)n(C)c3ccc(C#N)nc23)[C@@H](C)CN1C(c1ccc(F)cc1)c1cccc(N2CCOCC2)c1 (single isomer, unassigned) [Example 673] | 4.7 | 2.3 | – | – | 1.3 | – | – | –
CC[C@H]1CN(C(c2ccc(F)cc2)c2cccc(C(F)(F)F)n2)[C@H](CC)CN1c1cc(=O)n(C)c2ccc(C#N)nc12 (single isomer, unassigned) [Example 1046] | 0.09 | 0.054 | – | – | 0.14 | – | – | –

More lines, main results first:

IC50 (human DGKα; liposome (LIPGLO) assay) [µM] | IC50 (human DGKζ; liposome (LIPGLO) assay) [µM] | IC50 (human DGKα; DGKα liposome (LIPGLO) assay) [µM] | IC50 (human DGKζ; DGKζ liposome (LIPGLO) assay) [µM] | SMILES | EC50 (Human venous whole blood; [1]) [µM] | EC50 (Human venous whole blood; [2]) [µM] | EC50 (Human venous whole blood; [3]) [µM] | EC50 (Human venous whole blood; [4]) [µM]
– | – | 0.084 | 0.098 | C[C@@H]1CN(c2cc(=O)n(C)c3ccc(C#N)nc23)[C@@H](C)CN1C(c1ccc(F)cc1)c1csc(C2CC2)n1 (single isomer, unassigned) [Example 724] | – | 0.26 | – | –
5.4 | 2.2 | – | – | CC[C@@H]1CN(c2cc(=O)n(C)c3ccc(C#N)nc23)[C@@H](C)CN1C(C)c1ccc(OC(C)C)cc1 (single isomer, unassigned) [Example 1349] | 0.58 | – | – | –
– | – | 2.8 | 5.3 | Cc1cccc(CN2CCN(c3c(C#N)c(=O)n(C)c4ccc(C#N)nc34)C[C@H]2C)n1 [Example 988] | – | – | 20 | –
4.9 | 14 | – | – | C[C@@H]1CN(c2c(C#N)c(=O)n(C)c3ccc(C#N)nc23)CCN1C(c1ccc(F)cc1)c1cncnc1 (stereo partly drawn) [Example 318, 8-((3R)-4-((4-fluorophenyl)(pyrimidin-5-yl)methyl)-3-methylpiperazin-1-yl)-5-methyl-6-oxo-5,6-dihydro-1,5-naphthyridine-2,7-dicarbonitrile] | – | – | – | 7.4
7.9 | 1.1 | – | – | CC(c1ccc(F)c(Cl)c1)N1C[C@H](C)N(c2cc(=O)n(C)c3ccc(C#N)nc23)C[C@H]1C (single isomer, unassigned) [Example 1257] | 1.7 | – | – | –
10 | 100 | – | – | C[C@@H]1CN(c2cc(=O)n(C)c3ccc(C#N)nc23)[C@@H](C)CN1C(CO)c1ccc(F)cc1 (single isomer, unassigned) [Example 558] | 15 | – | – | –
3.6 | 1.5 | – | – | C[C@@H]1CN(c2cc(=O)n(C)c3ccc(C#N)nc23)[C@@H](C)CN1C(c1ccc(F)cc1)c1cccc(C(F)(F)F)n1 (stereo partly drawn) [Example 678] | 0.44 | – | – | –
0.31 | 0.25 | – | – | CCC(c1ccc(OC(F)(F)F)cc1F)N1C[C@H](C)N(c2cc(=O)n(C)c3ccc(C#N)nc23)C[C@H]1CC (single isomer, unassigned) [Example 420] | 0.15 | – | – | –
– | – | 0.17 | 1 | Cc1cc(C(c2ccc(F)cc2)N2C[C@H](C)N(c3c(C#N)c(=O)n(C)c4ccc(C#N)nc34)C[C@H]2C)no1 (single isomer, unassigned) [Example 864] | – | – | 6.5 | –
– | – | 3.5 | 7.2 | COC(=O)c1cccc(C(C)N2CCN(c3c(C#N)c(=O)n(C)c4ccc(C#N)nc34)C[C@H]2C)c1 (single isomer, unassigned) [Example 983] | – | 13 | – | –
2.7 | 0.11 | – | – | CC[C@@H]1CN(c2cc(=O)n(C)c3ccc(C#N)nc23)[C@@H](C)CN1Cc1ccc(F)cc1Cl [Example 1078] | – | – | – | 0.97
16 | 2 | – | – | C[C@@H]1CN(c2cc(=O)n(C)c3ccc(C#N)nc23)[C@@H](C)CN1Cc1cccc2c1cnn2C [Example 475, 8-((2S,5R)-2,5-dimethyl-4-((1-methyl-1H-indazol-4-yl)methyl)piperazin-1-yl)-5-methyl-6-oxo-5,6-dihydro-1,5-naphthyridine-2-carbonitrile] | – | – | – | 20
– | – | 1.8 | 1 | Cc1c(F)cccc1CN1CCN(c2c(C#N)c(=O)n(C)c3ccc(C#N)nc23)C[C@H]1C [Example 1010] | – | – | 2 | –
170 | 43 | – | – | CC(c1ccc(P(C)(C)=O)cc1)N1C[C@H](C)N(c2cc(=O)n(C)c3ccc(C#N)nc23)C[C@H]1C (stereo partly drawn) [Example 1290] | – | – | – | 20
20 | 65 | – | – | C[C@@H]1CN(c2c(C#N)c(=O)n(C)c3ccc(C#N)nc23)CCN1C(c1ccc(F)cc1)c1cn(C)cn1 (single isomer, unassigned) [Example 1026] | 20 | – | – | –
– | – | 1.5 | 4.6 | Cc1ccc(F)cc1CN1CCN(c2c(C#N)c(=O)n(C)c3ccc(C#N)nc23)C[C@H]1C [Example 1001] | – | – | 4.7 | –
7.5 | 0.31 | – | – | COCCOc1cc(C(C)N2C[C@H](C)N(c3cc(=O)n(C)c4ccc(C#N)nc34)C[C@H]2C)ccc1C#N (single isomer, unassigned) [Example 1321] | – | – | – | 3
0.57 | 2 | – | – | C[C@@H]1CN(c2cc(=O)n(C)c3ccc(C#N)nc23)[C@@H](C)CN1C(c1ccc(F)c(F)c1)c1ccccn1 (mixture of isomers) [Example 366, 8-((2S,5R)-4-((3,4-difluorophenyl)(pyridin-2-yl)methyl)-2,5-dimethylpiperazin-1-yl)-5-methyl-6-oxo-5,6-dihydro-1,5-naphthyridine-2-carbonitrile] | – | – | – | 0.49
0.2 | 0.98 | – | – | C[C@@H]1CN(c2cc(=O)n(C)c3ccc(C#N)nc23)[C@@H](C)CN1C(c1ccc(F)cn1)c1cccc2c1OC(C)(C)C2 (single isomer, unassigned) [Example 465] | – | – | – | 20
0.37 | 0.16 | – | – | C[C@@H]1CN(c2cc(=O)n(C)c3ccc(C#N)nc23)[C@@H](C)CN1C(c1ccc(F)cc1)c1csc(C(F)(F)F)n1 (single isomer, unassigned) [Example 1333] | – | – | – | 0.31
